The supplement of paper PMC10307832

Experiments:
Test in all cases: relative viability (nuclei count vs DMSO), 5 days (fraction); higher = more cells survive
[1] = compound: CO[C@H]1C[C@@H]2CC[C@@H](C)[C@@](O)(O2)C(=O)C(=O)N2CCCC[C@H]2C(=O)O[C@H]([C@H](C)C[C@@H]2CC[C@@H](OCCO)[C@H](OC)C2)CC(=O)[C@H](C)/C=C(\C)[C@@H](O)[C@@H](OC)C(=O)[C@H](C)C[C@H](C)/C=C/C=C/C=C/1C [Everolimus] + Nc1ncn([C@H]2C[C@H](O)[C@@H](CO)O2)c(=O)n1 [Decitabine] (partner 2 µM)
Method in brief: (§1)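 A single step with final 0.05% Triton X-100, 1% formaldehyde and 1 ug/ml Hoechst fixed the cells and stained nuclei 5 days after treatment. Lung cancer cell lines in 1536-well plates had been treated by pin tool the day after seeding with one drug alone or a fixed anchor-drug dose plus five library-drug doses (not always all listed) in √10 steps, and nuclei were counted on 4× images. Relative viability is the ratio of nuclei in treated wells to nuclei in vehicle wells, taken as the median of duplicate plates.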

[2] = compound: CO[C@H]1C[C@@H]2CC[C@@H](C)[C@@](O)(O2)C(=O)C(=O)N2CCCC[C@H]2C(=O)O[C@H]([C@H](C)C[C@@H]2CC[C@@H](OCCO)[C@H](OC)C2)CC(=O)[C@H](C)/C=C(\C)[C@@H](O)[C@@H](OC)C(=O)[C@H](C)C[C@H](C)/C=C/C=C/C=C/1C [Everolimus] + CS(=O)(=O)CCNCc1ccc(-c2ccc3ncnc(Nc4ccc(OCc5cccc(F)c5)c(Cl)c4)c3c2)o1 [Lapatinib] (partner 2 µM)
Method in brief: as §1

[3] = compound: CO[C@H]1C[C@@H]2CC[C@@H](C)[C@@](O)(O2)C(=O)C(=O)N2CCCC[C@H]2C(=O)O[C@H]([C@H](C)C[C@@H]2CC[C@@H](OCCO)[C@H](OC)C2)CC(=O)[C@H](C)/C=C(\C)[C@@H](O)[C@@H](OC)C(=O)[C@H](C)C[C@H](C)/C=C/C=C/C=C/1C [Everolimus] + O=C(c1cc(Cc2n[nH]c(=O)c3ccccc23)ccc1F)N1CCN(C(=O)C2CC2)CC1 [Olaparib] (partner 8 µM)
Method in brief: as §1

[4] = compound: CO[C@H]1C[C@@H]2CC[C@@H](C)[C@@](O)(O2)C(=O)C(=O)N2CCCC[C@H]2C(=O)O[C@H]([C@H](C)C[C@@H]2CC[C@@H](OCCO)[C@H](OC)C2)CC(=O)[C@H](C)/C=C(\C)[C@@H](O)[C@@H](OC)C(=O)[C@H](C)C[C@H](C)/C=C/C=C/C=C/1C [Everolimus] + NC(=O)Nc1cc(-c2cccc(F)c2)sc1C(=O)N[C@H]1CCCNC1 [AZD7762] (partner 0.2 µM)
Method in brief: as §1

Row | Cell Line | relative viability ([1]; first compound 0.01 µM) | relative viability ([1]; first compound 0.03162 µM) | relative viability ([1]; first compound 0.1 µM) | relative viability ([1]; first compound 0.3162 µM) | relative viability ([1]; first compound 1 µM) | relative viability ([2]; first compound 0.01 µM) | relative viability ([2]; first compound 0.03162 µM) | relative viability ([2]; first compound 0.1 µM) | relative viability ([2]; first compound 0.3162 µM) | relative viability ([2]; first compound 1 µM) | relative viability ([3]; first compound 0.01 µM) | relative viability ([3]; first compound 0.03162 µM) | relative viability ([3]; first compound 0.1 µM) | relative viability ([3]; first compound 0.3162 µM) | relative viability ([3]; first compound 1 µM) | relative viability ([4]; first compound 0.01 µM) | relative viability ([4]; first compound 0.03162 µM) | relative viability ([4]; first compound 0.1 µM) | relative viability ([4]; first compound 0.3162 µM) | relative viability ([4]; first compound 1 µM)
1 | HCC-44 | 0.933 | 0.975 | 0.937 | 0.954 | 0.896 | 1.01 | 1.11 | 1.12 | 1.01 | 0.938 | 1 | 1.17 | 1.07 | 1.06 | 1.03 | 1.1 | 1.18 | 1.03 | 1.12 | 1.25
2 | IA-LM | – | – | – | – | – | 0.718 | 0.395 | 0.377 | 0.272 | 0.432 | 0.759 | 0.613 | 0.603 | 0.741 | 0.665 | – | – | – | – | –
3 | LCLC-103H | 0.682 | 0.682 | 0.633 | 0.58 | 0.653 | – | – | – | – | – | 0.709 | 0.762 | 0.669 | 0.685 | 0.761 | 0.561 | 0.671 | 0.629 | 0.673 | 0.608
4 | NCI-H441 | 0.257 | 0.243 | 0.194 | 0.261 | 0.29 | – | – | – | – | – | 0.517 | 0.598 | 0.489 | 0.657 | 0.484 | 0.97 | 1.17 | 0.717 | 0.953 | 1.01
5 | NCI-H520 | 0.273 | 0.281 | 0.26 | 0.287 | 0.294 | 0.379 | 0.39 | 0.313 | 0.285 | 0.405 | 0.29 | 0.209 | 0.296 | 0.18 | 0.312 | – | – | – | – | –
